With `CS(=O)(=O)c1ccc(C2=C(c3ccc(F)cc3)CC(C(F)(F)F)(C(F)(F)F)C2)cc1` the melting point was 138 °C.
In the case of `COCCNC(=O)c1cccc(-c2cccc3cc(Cc4ccc(F)c(OC)c4)sc23)c1`, the melting point is reported as 70 to 71 °C.
For `O=C1N[C@H](Cc2ccc(C(F)(F)F)c(F)c2)[C@H](c2ccc(F)cc2)O1` (racemic), the melting point was 122 to 123 °C.
In the case of `CS(=O)(=O)Nc1cccc(Nc2nc(N3CCC[C@H]3CO)c3nc[nH]c3n2)c1`, the melting point is reported as 192 to 197 °C.
For `CCn1c(-c2cc3ccccc3[nH]2)nc(-c2ccncc2)c1-c1ccc(Cl)cc1`, the melting point was 279 to 280 °C.
`CCOC1=CC(=O)C(C(=O)OC)C(c2ccc(C)cc2)C1` (centres undefined) gave a melting point of 124 to 127 °C.
For `CCOC(=O)NN=Cc1ccc2ccccc2n1`, the melting point was 163 to 165 °C.
In the case of `CC(=O)C(=O)c1ccc(NS(C)(=O)=O)c(Sc2ccc(F)cc2F)c1`, the melting point is reported as 108 to 109 °C.
`CCCCOc1cc(OCCCC)c(C(=O)O)c(C(F)(F)F)n1` showed a melting point of 90 to 93.5 °C.
Work on `CC(CO)(CO)OCc1ccccc1F` yielded a melting point of 74.5 to 75 °C.
`CNC1=Nc2ccc(Cl)cc2C(c2ccccc2Cl)=NC1` gave a melting point of 216 to 219 °C.
In the case of `CSc1csc2ccc(Br)cc12`, the melting point is reported as 56 to 57 °C.
Compound `COC(=O)[C@]1(OS(C)(=O)=O)C[C@H](CC(C)C)[C@@H](O)[C@H](O)C1` has a melting point of 122 to 123 °C.
Work on `CC1CCN(CCC(=O)Nc2ccc3c(=O)c4ccc(NC(=O)CCN5CCC(C)CC5)cc4[nH]c3c2)CC1` yielded a melting point greater than 320 °C.
Compound `O=C(CCCN1CCCCC1)c1ccc2oc3ccc(C(=O)CCCN4CCCCC4)cc3c2c1` has a melting point of 70 to 71 °C.
In the case of `COc1ccc(C(=O)Nc2cc(NC(=O)c3cccc(Br)c3)ccc2C)cc1OC`, the melting point is reported as 136 to 138 °C.
For `CCCC12CCC(=O)C=C1c1c(cc(OCC(=O)O)c(Cl)c1Cl)CC2` (centres undefined), the melting point was 193 to 194 °C.
`CC(C)(C)OP(=O)(CO)OC(C)(C)C` gave a melting point of 100 to 102 °C.
With `COc1ccc(-c2cncc(OC3SCC(OC(C)=O)C(OC(C)=O)C3OC(C)=O)c2)cc1Cl` (centres undefined) the melting point was 155 °C.
`CC(=O)N(C)c1nc(C(C)(C)C)nn1-c1c(Cl)cc(Cl)cc1Cl` gave a melting point of 93 to 94 °C.
Compound `Cc1cc(C)cc(C(=O)N2CCNC(c3ccc(Cl)c(Cl)c3)C2)c1` (single isomer, unassigned; (+)) has a melting point of 97 to 100 °C.
`CC(=O)O[C@@H]1NC(=O)[C@H]1NC(=O)OCc1ccccc1` showed a melting point of 110 to 113 °C.
`Nc1ncc2c(n1)N(c1cccc(CCO)c1)C(=O)N(c1ccccc1Br)C2` showed a melting point of 154 °C.
`O=C1Nc2ccccc2CCC1N1C(=O)c2ccccc2C1=O` (centres undefined) gave a melting point of 261 to 263 °C.
Work on `Cc1ccc2c(c1)NC(=O)c1cccc3c1N2CC3` yielded a melting point of 238 to 240 °C.
For `CCOC(=O)NN=Cc1ccnc2ccccc12`, the melting point was 161 °C.
In the case of `Cc1nc(N)c2nc(C)n(CCCN)c2c1C`, the melting point is reported as 192 °C.
For `CS(=O)c1cncc(-c2nc(=O)c3ccccc3s2)n1` (centres undefined), the melting point was 228 to 230 °C.
With `CCC(C(=O)OC1C=CC=CO1)C(=O)OC1C=CC=CO1` (centres undefined) the melting point was 90 to 92 °C.
With `Cn1c(C(=O)O)cc2c(OCc3ccccc3)cccc21` the melting point was 217 °C.
With `C1c2c(-c3nn[nH]n3)n[nH]c2[C@@H]2C[C@H]12` the melting point was 231 °C.
In the case of `CCc1nc2cnc3ccc(OCc4ccccc4)cc3c2n1C`, the melting point is reported as 168 to 169 °C.
In the case of `Cc1ccc(NC(=O)c2ccccc2[N+](=O)[O-])cc1C(F)(F)F`, the melting point is reported as 172 to 173 °C.
`CC1(C)c2cc(OS(C)(=O)=O)ccc2OC1O` (centres undefined) gave a melting point of 69 to 72 °C.
Work on `CSc1nc(NN2CCCCC2)c2ncn(C3OC(CCl)C(O)C3O)c2n1` (centres undefined) yielded a melting point of 213 to 215 °C.
Work on `CN1CC(=O)N(c2cc(Cc3n[nH]c(=O)c4ccccc34)ccc2F)C(=O)C1` yielded a melting point of 205 to 208 °C.
Work on `CC(C)(C)NC(=O)[C@@H]1CCCN1C(=O)[C@@H](O)[C@H](Cc1ccccc1)NC(=O)[C@H](CC(N)=O)NC(=O)COc1ccc(NC(=O)CNCCN2CCOCC2)cc1` yielded a melting point of 123 to 132 °C.
`CCN(CC)CCNC(=O)Cn1c(-c2ccc(Cl)cc2)nc2cccnc21` gave a melting point of 142 to 143 °C.
`COCC1CN(Cc2cc(OC)c(OC)c(OC)c2)CCN1C(=O)c1cn2ccccc2n1` (centres undefined) gave a melting point of 129 to 130 °C.

Reference: a melting point compilation (Tetko et al.; mined from patent text by program, amines drawn as free bases though some values may be those of a salt)
